The values that follow come from patent US20100129831A1, “METHODS FOR DIAGNOSING HYPERSENSITIVITY REACTIONS” (priority 2007, published 2010).

This test relates to acute interstitial nephritis. In words: oral glucocorticoid treatment of acute interstitial nephritis (case report). It counts as in vivo, human. As to conditions: 1 mg/kg, creatinine gradually declined. As for the experimental part:
Severe acute interstitial nephritis (AIN) was diagnosed based on needle biopsy. Oral glucocorticoid treatment (prednisone 1 mg/kg) was begun and was effective. Creatinine gradually declined over the next 8 weeks (Cr-3.5 mg/dL); glucose levels also declined. Another course of steroids was initiated, after which the creatinine level further declined, stabilizing around a level of 1.8 mg/dL, close to the previous value of 1.4 mg/dL. While investigated as to the etiology of their newly diagnosed AIN, the patient described the use of an alternative medicine hypnotic or sedative OTC, “Region-Laila.” Region's leaflet lists 4 active ingredients: Passiflora incarnata 250 mg, Scutellaria laterifolia 50 mg, Humulus Lupullus 50 mg and Melissa officinalis 25 mg.

For the compound `C[C@]12C=CC(=O)C=C1CC[C@@H]1[C@@H]2C(=O)C[C@@]2(C)[C@H]1CC[C@]2(O)C(=O)CO` [prednisone], the “treatment outcome in acute interstitial nephritis” value is listed as “effective”.
